Where a name gives a salt, the structure may show the parent alone.
Assay: in vitro
Conditions: human, hek293t cells

Row | SMILES | viability at 48 h, 25 µM [%]
1 | COc1ccc(NC(=O)C(C)Cl)c([N+](=O)[O-])c1 (stereo not drawn) [6-B08, 2-chloro-N-(4-methoxy-2-nitrophenyl)propanamide] | 90.1
2 | Cn1ccc(-c2nc(CNC(=O)CCl)cs2)n1 [6-B09, 2-chloro-N-{[2-(1-methyl-1H-pyrazol-3-yl)-1,3-thiazol-4-yl]methyl}acetamide hydrochloride] | 1.33
3 | CC(C)NS(=O)(=O)c1ccc(NC(=O)C(C)Cl)cc1 (stereo not drawn) [6-B10, 2-chloro-N-{4-[(propan-2-yl)sulfamoyl]phenyl}propanamide] | 98.5
4 | CC(Cl)C(=O)N1CCN(C(=O)CN2C(=O)CCC2=O)CC1 (stereo not drawn) [6-B11, 1-{2-[4-(2-chloropropanoyl)piperazin-1-yl]-2-oxoethyl}pyrrolidine-2,5-dione] | 106
5 | CC(Cl)C(=O)N1CCN(S(=O)(=O)c2ccccc2)CC1 (stereo not drawn) [6-B12, 1-[4-(benzenesulfonyl)piperazin-1-yl]-2-chloropropan-1-one] | 100
6 | COCC(NC(=O)C(C)Cl)c1ccccn1 (stereo not drawn) [6-B13, 2-chloro-N-[2-methoxy-1-(pyridin-2-yl)ethyl]propanamide] | 106
7 | CC(Cl)C(=O)NC1(c2noc(C(F)F)n2)CCC1 (stereo not drawn) [6-B15, 2-chloro-N-{1-[5-(difluoromethyl)-1,2,4-oxadiazol-3-yl]cyclobutyl}propanamide] | 91.8
8 | CC(Cl)C(=O)NC(C)c1ccn(C)n1 (stereo not drawn) [6-B16, 2-chloro-N-[1-(1-methyl-1H-pyrazol-3-yl)ethyl]propanamide] | 103
9 | COc1cccc([C@H]2C[C@H](N(C)C(=O)C(C)Cl)C2)c1 (stereo partly drawn) [6-B17, 2-chloro-N-methyl-N-[(1r,3r)-3-(3-methoxyphenyl)cyclobutyl]propanamide] | 79.7
10 | CC(Cl)C(=O)N(C)C1CCN(C(=O)c2ccccc2)CC1 (stereo not drawn) [6-B18, N-(1-benzoylpiperidin-4-yl)-2-chloro-N-methylpropanamide] | 95.9
11 | CC(Cl)C(=O)N1CCCc2c1ccc1c2ncn1C (stereo not drawn) [6-B19, 2-chloro-1-{3-methyl-3H,6H,7H,8H,9H-imidazo[4,5-f]quinolin-6-yl}propan-1-one] | 90.9
12 | CC(Cl)C(=O)NCC1(n2ccnn2)CC1 (stereo not drawn) [6-B20, 2-chloro-N-{[1-(1H-1,2,3-triazol-1-yl)cyclopropyl]methyl}propanamide] | 104
13 | CC(Cl)C(=O)N1CCc2oc(-c3ccccc3)cc2C1 (stereo not drawn) [6-B21, 2-chloro-1-{2-phenyl-4H,5H,6H,7H-furo[3,2-c]pyridin-5-yl}propan-1-one] | 67.2
14 | CC(Cl)C(=O)N[C@H]1C[C@H](C)S(=O)(=O)c2sccc21 (stereo partly drawn) [6-B22, 2-chloro-N-[(2S,4S)-2-methyl-1,1-dioxo-2H,3H,4H-1lambda6-thieno[2,3-b]thiopyran-4-yl]propanamide] | 92.4
15 | CN(CCOc1ccccc1F)C(=O)CCl [6-C03, 2-chloro-N-[2-(2-fluorophenoxy)ethyl]-N-methylacetamide] | 1.83
16 | CC(C)(CNC(=O)CCl)CC1CCOCC1 [6-C04, 2-chloro-N-[2,2-dimethyl-3-(oxan-4-yl)propyl]acetamide] | 130
17 | CC1(C)CN(C(=O)CCl)CCO1 [6-C05, 2-chloro-1-(2,2-dimethylmorpholin-4-yl)ethan-1-one] | 2.63
18 | Cc1ccccc1CC(C)NC(=O)CCl (stereo not drawn) [6-C06, 2-chloro-N-[1-(2-methylphenyl)propan-2-yl]acetamide] | 75.4
19 | Cc1nn(C)c(C)c1NC(=O)C(C)Cl (stereo not drawn) [6-C07, 2-chloro-N-(1,3,5-trimethyl-1H-pyrazol-4-yl)propanamide] | 116
20 | O=C(CCl)NCC(c1ccccc1)c1c[nH]c2ccccc12 (stereo not drawn) [6-C08, 2-chloro-N-[2-(1H-indol-3-yl)-2-phenylethyl]acetamide] | 0.717
21 | COc1ccccc1CN(C)C(=O)CCl [6-C09, 2-chloro-N-[(2-methoxyphenyl)methyl]-N-methylacetamide] | 1.06
22 | CC1CCCCC1NC(=O)CCl (stereo not drawn) [6-C10, 2-chloro-N-(2-methylcyclohexyl)acetamide] | 93.3
23 | N#CCSc1ccccc1NC(=O)CCl [6-C11, 2-chloro-N-{2-[(cyanomethyl)sulfanyl]phenyl}acetamide] | 2.08
24 | CC(Cl)C(=O)N(C)CCOc1ccc(Cl)cc1 (stereo not drawn) [6-C12, 2-chloro-N-[2-(4-chlorophenoxy)ethyl]-N-methylpropanamide] | 81.3
25 | O=C(CCl)NC(Cc1ccccc1)C(=O)O (stereo not drawn) [6-C13, 2-(2-chloroacetamido)-3-phenylpropanoic acid] | 97.4
26 | O=C(CCl)NCc1ccccc1OC1CCCC1 [6-C14, 2-chloro-N-{[2-(cyclopentyloxy)phenyl]methyl}acetamide] | 2.1
27 | COc1cc(Cl)c(C)cc1NC(=O)C(C)Cl (stereo not drawn) [6-C15, 2-chloro-N-(4-chloro-2-methoxy-5-methylphenyl)propanamide] | 102

Row | SMILES | viability at 48 h, 25 µM [%]
28 | CN(C)C(=O)c1ccc(CNC(=O)CCl)cc1 [6-C16, 4-[(2-chloroacetamido)methyl]-N,N-dimethylbenzamide] | 67.8
29 | CC(Cl)C(=O)Nc1cccnc1Cl (stereo not drawn) [6-C17, 2-chloro-N-(2-chloropyridin-3-yl)propanamide] | 106
30 | O=C(CCl)Nc1ccc(Oc2cccc(Cl)c2)cc1 [6-C18, 2-chloro-N-[4-(3-chlorophenoxy)phenyl]acetamide] | 0.765
31 | O=C(CCl)Nc1nccc(Cl)n1 [6-C19, 2-chloro-N-(4-chloropyrimidin-2-yl)acetamide] | 100
32 | CCN(CC)S(=O)(=O)c1ccc(Cl)c(NC(=O)C(C)Cl)c1 (stereo not drawn) [6-C20, 2-chloro-N-[2-chloro-5-(diethylsulfamoyl)phenyl]propanamide] | 79.6
33 | O=C(CCl)NCC(F)(F)c1cccnc1 [6-C21, 2-chloro-N-[2,2-difluoro-2-(pyridin-3-yl)ethyl]acetamide] | 104
34 | O=C(CCl)NC(C1CC1)C1CC1 [6-C22, 2-chloro-N-(dicyclopropylmethyl)acetamide] | 66.4
35 | O=C(CCl)Nc1nc2c(s1)CCc1ccccc1-2 [6-D03, 2-chloro-N-{4H,5H-naphtho[1,2-d][1,3]thiazol-2-yl}acetamide] | 0.611
36 | Cc1nc2ccccc2n(CCCN(C)C(=O)CCl)c1=O [6-D04, 2-chloro-N-methyl-N-[3-(3-methyl-2-oxo-1,2-dihydroquinoxalin-1-yl)propyl]acetamide] | 1.73
37 | CC(Cl)C(=O)N(C)C(C)c1ccccc1N1CCCS1(=O)=O (stereo not drawn) [6-D05, 2-chloro-N-{1-[2-(1,1-dioxo-1lambda6,2-thiazolidin-2-yl)phenyl]ethyl}-N-methylpropanamide] | 104
38 | CC(Cl)C(=O)Nc1ccc([N+](=O)[O-])cc1C(F)(F)F (stereo not drawn) [6-D06, 2-chloro-N-[4-nitro-2-(trifluoromethyl)phenyl]propanamide] | 98.9
39 | CC(Cl)C(=O)N1CCNC(=O)C1c1c(F)cccc1Cl (stereo not drawn) [6-D07, 3-(2-chloro-6-fluorophenyl)-4-(2-chloropropanoyl)piperazin-2-one] | 107
40 | Cn1cc(CN(C(=O)CCl)c2ccc(F)cc2)cn1 [6-D08, 2-chloro-N-(4-fluorophenyl)-N-[(1-methyl-1H-pyrazol-4-yl)methyl]acetamide] | 2.1
41 | Cc1ncccc1NC(=O)[C@H](C)NC(=O)C(C)Cl (stereo partly drawn) [6-D09, 2-chloro-N-[(1S)-1-[(2-methylpyridin-3-yl)carbamoyl]ethyl]propanamide] | 99.8
42 | CC(Cl)C(=O)NC(=O)NC12CC3CC(CC(C3)C1)C2 (stereo not drawn) [6-D10, 1-(adamantan-1-yl)-3-(2-chloropropanoyl)urea] | 101
43 | O=C(CCl)NCC(c1nccs1)N1CCCC1 (stereo not drawn) [6-D11, 2-chloro-N-[2-(pyrrolidin-1-yl)-2-(1,3-thiazol-2-yl)ethyl]acetamide hydrochloride] | 92.9
44 | O=C(CCl)Nc1ccccc1C(=O)Nc1ccc(F)cc1 [6-D12, 2-(2-chloroacetamido)-N-(4-fluorophenyl)benzamide] | 0.805
45 | CC(Cl)C(=O)N[C@H](C)c1cnnn1C (stereo partly drawn) [6-D13, 2-chloro-N-[(1R)-1-(1-methyl-1H-1,2,3-triazol-5-yl)ethyl]propanamide] | 103
46 | CC(Cl)C(=O)N1CCCc2c1ccnc2N(C)C (stereo not drawn) [6-D14, 2-chloro-1-[5-(dimethylamino)-1,2,3,4-tetrahydro-1,6-naphthyridin-1-yl]propan-1-one] | 109
47 | CC1=C(c2ccco2)CN(C(=O)C(C)Cl)CC1 (stereo not drawn) [6-D15, 2-chloro-1-[5-(furan-2-yl)-4-methyl-1,2,3,6-tetrahydropyridin-1-yl]propan-1-one] | 103
48 | CC(Cl)C(=O)N1CCCC1CC(=O)c1cnn(C)c1 (stereo not drawn) [6-D16, 2-chloro-1-{2-[2-(1-methyl-1H-pyrazol-4-yl)-2-oxoethyl]pyrrolidin-1-yl}propan-1-one] | 116
49 | CC(CO)N(Cc1ccccc1Cl)C(=O)CCl (stereo not drawn) [6-D17, 2-chloro-N-[(2-chlorophenyl)methyl]-N-(1-hydroxypropan-2-yl)acetamide] | 1.39
50 | CC(Cl)C(=O)N(CCc1ccc(F)cc1F)C(C)C (stereo not drawn) [6-D18, 2-chloro-N-[2-(2,4-difluorophenyl)ethyl]-N-(propan-2-yl)propanamide] | 101
51 | Cc1ccc(C2CS(=O)(=O)CCN2C(=O)C(C)Cl)o1 (stereo not drawn) [6-D19, 4-(2-chloropropanoyl)-3-(5-methylfuran-2-yl)-1lambda6-thiomorpholine-1,1-dione] | 107
52 | CC(Cl)C(=O)N[C@H]1C[C@H](Cn2cncn2)C1 (stereo partly drawn) [6-D20, 2-chloro-N-[(1r,3r)-3-[(1H-1,2,4-triazol-1-yl)methyl]cyclobutyl]propanamide] | 105
53 | COC1(CNC(=O)CCl)CCC(C(F)F)CC1 (stereo not drawn) [6-D21, 2-chloro-N-{[4-(difluoromethyl)-1-methoxycyclohexyl]methyl}acetamide] | 52.3
54 | CC(Cl)C(=O)N(Cc1ccccc1)C1C=CS(=O)(=O)C1 (stereo not drawn) [6-D22, N-benzyl-2-chloro-N-(1,1-dioxo-2,3-dihydro-1lambda6-thiophen-3-yl)propanamide] | 98

From publication PMC11995724, “Antibiotic target discovery by integrated phenotypic and activity-based profiling of electrophilic fragments” (Cell chemical biology, 2025)
